Data reported in ChEMBL document CHEMBL4732263 (Bioorg Med Chem, 2021).
Values after ≈ are worked out from the molar mass of the structure shown.

Legend:
[1] = Apparent half life in Balb/C mouse at 2.5 mg/kg, iv up to 24 hrs by LC-MS analysis; type: ADME, organism-based; conditions: in vivo, read-out: t1/2(app) (converted)
[2] = Plasma clearance in Balb/C mouse at 2.5 mg/kg, iv up to 24 hrs by LC-MS analysis; type: ADME, organism-based
[3] = Volume of distribution at steady state in Balb/C mouse plasma at 2.5 mg/kg, iv up to 24 hrs by LC-MS analysis; type: ADME, organism-based; conditions: read-out: Vdss
[4] = AUC(0 to infinity) in Balb/C mouse plasma at 2.5 mg/kg, iv up to 24 hrs by LC-MS analysis; type: ADME, organism-based; set-up: route intravenous, dose 2.5 mg/kg, time <=24
[5] = Ratio of drug level in blood to plasma in Balb/C mouse plasma at 2.5 mg/kg, iv up to 24 hrs by LC-MS analysis; type: ADME, organism-based; conditions: whole blood and plasma
[6] = Clearance in Balb/C mouse blood at 2.5 mg/kg, iv up to 24 hrs by LC-MS analysis; type: ADME, organism-based; conditions: whole blood
[7] = Volume of distribution at steady state in Balb/C mouse blood at 2.5 mg/kg, iv up to 24 hrs by LC-MS analysis; type: ADME, organism-based; conditions: whole blood, read-out: Vdss
[8] = Half life in Sprague-Dawley rat at 2.5 mg/kg, iv up to 24 hrs by LC-MS analysis; type: ADME, organism-based; conditions: in vivo
[9] = Plasma clearance in Sprague-Dawley rat at 2.5 mg/kg, iv up to 24 hrs by LC-MS analysis; type: ADME, organism-based
[10] = Volume of distribution at steady state in Sprague-Dawley rat plasma at 2.5 mg/kg, iv up to 24 hrs by LC-MS analysis; type: ADME, organism-based; conditions: read-out: Vdss
[11] = AUC(0 to infinity) in Sprague-Dawley rat plasma at 2.5 mg/kg, iv up to 24 hrs by LC-MS analysis; type: ADME, organism-based; set-up: route intravenous, dose 2.5 mg/kg, time <=24
[12] = Ratio of drug level in blood to plasma in Sprague-Dawley rat at 2.5 mg/kg, iv up to 24 hrs by LC-MS analysis by LC-MS analysis; type: ADME, organism-based; conditions: blood and plasma
[13] = Clearance in Sprague-Dawley rat blood at 2.5 mg/kg, iv up to 24 hrs by LC-MS analysis; type: ADME, organism-based; conditions: whole blood
[14] = Volume of distribution at steady state in Sprague-Dawley rat blood at 2.5 mg/kg, iv up to 24 hrs by LC-MS analysis; type: ADME, organism-based; conditions: whole blood, read-out: Vdss
[15] = Drug excretion in Sprague-Dawley rat urine at 2.5 mg/kg, iv up to 24 hrs by LC-MS analysis; type: ADME, organism-based; conditions: read-out: Drug excretion
[16] = Clearance in Sprague-Dawley rat renal blood at 2.5 mg/kg, iv up to 24 hrs by LC-MS analysis; type: ADME, organism-based; conditions: whole blood
[17] = Drug metabolism in Sprague-Dawley rat assessed amiloride formation at 2.5 mg/kg, iv after 4.8 mins by LC-MS analysis; type: ADME, organism-based; conditions: in vivo, 0.08 h
[18] = molecular target: Voltage-gated inwardly rectifying potassium channel KCNH2 (Homo sapiens, UniProt Q12809)
Chain of Voltage-gated inwardly rectifying potassium channel KCNH2 (Q12809 whole entry): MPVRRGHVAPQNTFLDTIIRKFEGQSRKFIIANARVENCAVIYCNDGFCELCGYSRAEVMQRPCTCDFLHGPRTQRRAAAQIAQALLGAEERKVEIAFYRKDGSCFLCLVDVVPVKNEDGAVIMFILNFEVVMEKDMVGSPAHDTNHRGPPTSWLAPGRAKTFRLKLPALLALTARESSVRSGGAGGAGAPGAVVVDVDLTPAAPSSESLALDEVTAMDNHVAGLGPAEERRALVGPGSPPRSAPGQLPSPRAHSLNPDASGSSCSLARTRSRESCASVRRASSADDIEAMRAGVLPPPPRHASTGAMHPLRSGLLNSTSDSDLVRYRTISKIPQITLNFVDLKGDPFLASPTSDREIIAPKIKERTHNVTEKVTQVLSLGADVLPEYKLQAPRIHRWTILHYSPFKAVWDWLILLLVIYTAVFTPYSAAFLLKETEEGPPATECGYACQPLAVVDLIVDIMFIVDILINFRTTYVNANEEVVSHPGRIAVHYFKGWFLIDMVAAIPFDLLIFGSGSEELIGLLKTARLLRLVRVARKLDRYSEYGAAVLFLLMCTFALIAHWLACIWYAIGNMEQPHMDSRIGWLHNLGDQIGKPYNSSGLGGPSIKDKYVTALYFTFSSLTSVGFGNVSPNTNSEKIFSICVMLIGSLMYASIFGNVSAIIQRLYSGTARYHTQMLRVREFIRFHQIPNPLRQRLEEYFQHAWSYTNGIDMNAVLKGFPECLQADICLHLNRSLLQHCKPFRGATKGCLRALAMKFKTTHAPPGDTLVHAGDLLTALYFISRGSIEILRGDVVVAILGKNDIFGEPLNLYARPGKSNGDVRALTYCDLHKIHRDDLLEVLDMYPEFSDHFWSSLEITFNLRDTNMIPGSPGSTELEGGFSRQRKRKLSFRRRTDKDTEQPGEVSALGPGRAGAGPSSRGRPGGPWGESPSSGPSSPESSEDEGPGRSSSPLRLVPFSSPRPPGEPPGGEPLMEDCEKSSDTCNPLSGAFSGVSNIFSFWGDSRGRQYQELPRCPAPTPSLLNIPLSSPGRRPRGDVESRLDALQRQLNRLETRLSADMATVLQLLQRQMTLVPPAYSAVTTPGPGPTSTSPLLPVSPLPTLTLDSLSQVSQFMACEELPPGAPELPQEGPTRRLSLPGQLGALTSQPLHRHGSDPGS

[19] = molecular target: Sodium channel protein type 5 subunit alpha (Homo sapiens, UniProt Q14524)
Chain of Sodium channel protein type 5 subunit alpha (Q14524 whole entry): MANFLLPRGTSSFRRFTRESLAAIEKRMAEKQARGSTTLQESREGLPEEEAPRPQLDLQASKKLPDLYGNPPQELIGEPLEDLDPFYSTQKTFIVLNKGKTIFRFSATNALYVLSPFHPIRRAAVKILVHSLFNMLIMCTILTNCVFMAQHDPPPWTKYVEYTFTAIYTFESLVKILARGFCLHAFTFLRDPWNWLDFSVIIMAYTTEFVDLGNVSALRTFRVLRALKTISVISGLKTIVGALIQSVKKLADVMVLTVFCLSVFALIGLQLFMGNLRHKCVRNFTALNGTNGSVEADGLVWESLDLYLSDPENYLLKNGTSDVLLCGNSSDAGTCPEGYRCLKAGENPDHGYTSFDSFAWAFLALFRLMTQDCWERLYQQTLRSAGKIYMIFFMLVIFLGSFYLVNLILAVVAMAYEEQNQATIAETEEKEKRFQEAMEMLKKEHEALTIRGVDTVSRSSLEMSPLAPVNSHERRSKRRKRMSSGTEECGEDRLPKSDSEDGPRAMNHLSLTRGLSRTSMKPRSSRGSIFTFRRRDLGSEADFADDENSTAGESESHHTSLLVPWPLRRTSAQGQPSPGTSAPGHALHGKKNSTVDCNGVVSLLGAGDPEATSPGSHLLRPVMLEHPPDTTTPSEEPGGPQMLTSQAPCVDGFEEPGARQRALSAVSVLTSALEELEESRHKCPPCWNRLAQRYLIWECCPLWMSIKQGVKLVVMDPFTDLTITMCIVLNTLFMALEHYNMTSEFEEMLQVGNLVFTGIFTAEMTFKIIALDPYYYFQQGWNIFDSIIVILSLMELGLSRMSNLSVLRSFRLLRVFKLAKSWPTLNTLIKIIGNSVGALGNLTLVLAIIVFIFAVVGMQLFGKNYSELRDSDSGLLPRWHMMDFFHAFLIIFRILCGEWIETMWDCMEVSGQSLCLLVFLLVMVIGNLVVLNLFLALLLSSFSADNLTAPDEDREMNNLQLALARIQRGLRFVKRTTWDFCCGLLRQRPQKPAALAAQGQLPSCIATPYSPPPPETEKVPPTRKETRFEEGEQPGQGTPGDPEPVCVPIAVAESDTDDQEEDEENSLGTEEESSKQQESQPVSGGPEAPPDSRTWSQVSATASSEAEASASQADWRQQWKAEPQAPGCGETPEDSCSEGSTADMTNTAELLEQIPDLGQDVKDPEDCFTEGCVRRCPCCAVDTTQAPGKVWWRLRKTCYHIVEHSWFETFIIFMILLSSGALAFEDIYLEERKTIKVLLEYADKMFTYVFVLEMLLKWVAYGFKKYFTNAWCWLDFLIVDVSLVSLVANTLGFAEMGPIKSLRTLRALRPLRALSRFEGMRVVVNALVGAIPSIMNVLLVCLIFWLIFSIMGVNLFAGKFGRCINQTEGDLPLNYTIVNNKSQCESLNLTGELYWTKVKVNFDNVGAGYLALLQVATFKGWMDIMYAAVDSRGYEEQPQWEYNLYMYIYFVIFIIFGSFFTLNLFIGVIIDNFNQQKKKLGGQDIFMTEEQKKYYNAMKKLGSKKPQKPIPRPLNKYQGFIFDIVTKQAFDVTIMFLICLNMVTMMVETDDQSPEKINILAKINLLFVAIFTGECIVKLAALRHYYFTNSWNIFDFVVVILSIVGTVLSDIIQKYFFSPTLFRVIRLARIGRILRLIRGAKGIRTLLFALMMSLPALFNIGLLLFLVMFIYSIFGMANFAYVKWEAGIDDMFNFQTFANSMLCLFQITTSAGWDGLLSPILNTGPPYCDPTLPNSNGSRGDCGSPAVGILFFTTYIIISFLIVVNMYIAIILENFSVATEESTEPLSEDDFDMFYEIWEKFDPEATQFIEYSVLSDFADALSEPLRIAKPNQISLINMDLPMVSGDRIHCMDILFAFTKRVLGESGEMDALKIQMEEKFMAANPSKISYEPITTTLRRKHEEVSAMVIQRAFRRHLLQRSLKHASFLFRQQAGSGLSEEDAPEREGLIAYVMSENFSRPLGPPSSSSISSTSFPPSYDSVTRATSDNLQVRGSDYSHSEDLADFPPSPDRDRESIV

[20] = octanol/water, pH 7.4
[21] = human, microsomes, 1 h, 1 µM
[22] = mouse, microsomes, 1 h, 1 µM
[23] = mouse, blood, 2 h; at 1 µg/mL
cells = conditions: Homo sapiens, HEK293, 10 min
in vivo = conditions: Balb/C, mouse, po, at 1.9 to 3.5 mg/kg
physchem [24] = conditions: HCl, pH 2, pH 2
physchem [25] = conditions: PBS, pH 6.5, pH 6.5
in vitro [26] = conditions: human, liver microsomes
in vitro [27] = conditions: human, liver microsomes; remark: listed apart in the source
in vitro [28] = conditions: mouse, liver microsomes
in vitro [29] = conditions: mouse, liver microsomes; remark: listed apart in the source
in vitro [30] = conditions: Balb/C, mouse, plasma; at 1 µg/mL
in vitro [31] = conditions: Balb/C, mouse, plasma; at 1 µg/mL; remark: listed apart in the source
in vitro [32] = conditions: human, Caco-2
in vitro [33] = conditions: human, Caco-2; remark: listed apart in the source
in vitro [34] = conditions: human, Caco-2; remark: listed apart in the source
in vitro [35] = conditions: human, Caco-2; remark: listed apart in the source
in vitro [36] = conditions: human, Caco-2; remark: listed apart in the source
[37] = Apparent half life in Balb/C mouse at 2.6 mg/kg, iv up to 24 hrs by LC-MS analysis; type: ADME, organism-based; conditions: in vivo, read-out: t1/2(app) (converted)
[38] = Plasma clearance in Balb/C mouse at 2.6 mg/kg, iv up to 24 hrs by LC-MS analysis; type: ADME, organism-based
[39] = Volume of distribution at steady state in Balb/C mouse plasma at 2.6 mg/kg, iv up to 24 hrs by LC-MS analysis; type: ADME, organism-based; conditions: read-out: Vdss
[40] = AUC(0 to infinity) in Balb/C mouse plasma at 2.6 mg/kg, iv up to 24 hrs by LC-MS analysis; type: ADME, organism-based; set-up: route intravenous, dose 2.6 mg/kg, time <=24
[41] = Ratio of drug level in blood to plasma in Balb/C mouse plasma at 2.6 mg/kg, iv up to 24 hrs by LC-MS analysis; type: ADME, organism-based; conditions: blood and plasma
[42] = Clearance in Balb/C mouse blood at 2.6 mg/kg, iv up to 24 hrs by LC-MS analysis; type: ADME, organism-based; conditions: whole blood
[43] = Volume of distribution at steady state in Balb/C mouse blood at 2.6 mg/kg, iv up to 24 hrs by LC-MS analysis; type: ADME, organism-based; conditions: whole blood, read-out: Vdss
[44] = Half life in Sprague-Dawley rat at 3.9 mg/kg, iv up to 24 hrs by LC-MS analysis; type: ADME, organism-based; conditions: in vivo
[45] = Plasma clearance in Sprague-Dawley rat at 3.9 mg/kg, iv up to 24 hrs by LC-MS analysis; type: ADME, organism-based
[46] = Volume of distribution at steady state in Sprague-Dawley rat plasma at 3.9 mg/kg, iv up to 24 hrs by LC-MS analysis; type: ADME, organism-based; conditions: read-out: Vdss
[47] = AUC(0 to infinity) in Sprague-Dawley rat plasma at 3.9 mg/kg, iv up to 24 hrs by LC-MS analysis; type: ADME, organism-based; set-up: route intravenous, dose 3.9 mg/kg, time <=24
[48] = Ratio of drug level in blood to plasma in Sprague-Dawley rat at 3.9 mg/kg, iv up to 24 hrs by LC-MS analysis by LC-MS analysis; type: ADME, organism-based; conditions: whole blood and plasma
[49] = Clearance in Sprague-Dawley rat blood at 3.9 mg/kg, iv up to 24 hrs by LC-MS analysis; type: ADME, organism-based; conditions: whole blood
[50] = Volume of distribution at steady state in Sprague-Dawley rat blood at 3.9 mg/kg, iv up to 24 hrs by LC-MS analysis; type: ADME, organism-based; conditions: whole blood, read-out: Vdss
[51] = Drug excretion in Sprague-Dawley rat urine at 3.9 mg/kg, iv up to 24 hrs by LC-MS analysis; type: ADME, organism-based; conditions: read-out: Drug excretion
[52] = Clearance in Sprague-Dawley rat renal blood at 3.9 mg/kg, iv up to 24 hrs by LC-MS analysis; type: ADME, organism-based; conditions: whole blood
[53] = Drug metabolism in Sprague-Dawley rat at 3.9 mg/kg, iv by LC-MS analysis; type: ADME, organism-based; conditions: in vivo

Row | Structure (SMILES) | IC50 [18] | IC50 [19] | logD [20] | CL free [21] | CL free [22] | Stabilty [23] | IC50 (cells) | bioavailability at 24 h (in vivo) | solubility kinetic (physchem [24]) | solubility kinetic (physchem [25]) | half-life at 1 h, 1 µM (in vitro [26]) | microsomal CLint at 1 h, 1 µM (in vitro [27]) | half-life at 1 h, 1 µM (in vitro [28]) | microsomal CLint at 1 h, 1 µM (in vitro [29]) | fraction unbound at […], 1 ug/ml (in vitro [30]) | metabolised at 4 h, 1 ug/ml (in vitro [31]) | recovery at 2 h, 20 µM (in vitro [32]) | recovery at 2 h, 20 µM (in vitro [33]) | Papp A→B at 2 h, 20 µM (in vitro [34]) | Papp B→A at 2 h, 20 µM (in vitro [35]) | also measured
1 | N=C(N)NC(=O)c1nc(Cl)c(N2CCCCCC2)nc1N [N,N-HEXAMETHYLENEAMILORIDE] | 3.3 µM | 30 µM | 3.8 | 74 µL/min/mg | 2243 µL/min/mg | Unstable | 8.3 µM | 4.5% | > 100 µg/mL | 50 µg/mL (≈ 160 µM) | 73 min | 24 µL/min/mg | 2.4 min | 726 µL/min/mg | 0.03 | < 6% | 79% | 100% | 15 ×10⁻⁶ cm/s | 56 ×10⁻⁶ cm/s | half-life [1]: 37.2 min; clearance [2]: 86 mL/min/kg; Vd [3]: 2 L/kg; AUC(0-inf) [4]: 1.5 µM·h; blood plasma ratio at 24 h [5]: 1.5; clearance [6]: 59 mL/min/kg; Vd [7]: 1.4 L/kg; half-life [8]: 192 min; clearance [9]: 83.5 mL/min/kg; Vd [10]: 5.3 L/kg; AUC(0-inf) [11]: 1.6 µM·h; blood plasma ratio at 24 h [12]: 1.8; clearance [13]: 46.2 mL/min/kg; Vd [14]: 2.9 L/kg; dose excreted at 24 h [15]: 0.5%; CL renal at 24 h [16]: 0.2 mL/min/kg; Drug metabolism [17]: Metabolite_Detected; efflux ratio at 2 h, 20 µM (in vitro [36]): 3.8
2 | N=C(N)NC(=O)c1nc(-c2cc3ccccc3o2)c(N2CCCCCC2)nc1N | < 3 µM | < 3 µM | 5.1 | 888 µL/min/mg | 888 µL/min/mg | Unstable | < 3 µM | < 5% | 12.5 µg/mL (≈ 31.8 µM) | 1.6 µg/mL (≈ 4.07 µM) | 68 min | 26 µL/min/mg | 24 min | 73 µL/min/mg | 0.02 | < 6% | 29% | 76% | 0.3 ×10⁻⁶ cm/s | 12 ×10⁻⁶ cm/s | half-life [37]: 102 min; clearance [38]: 71 mL/min/kg; Vd [39]: 2.3 L/kg; AUC(0-inf) [40]: 1.6 µM·h; blood plasma ratio at 24 h [41]: 1.4; clearance [42]: 53 mL/min/kg; Vd [43]: 1.7 L/kg; half-life [44]: 420 min; clearance [45]: 56.9 mL/min/kg; Vd [46]: 12.4 L/kg; AUC(0-inf) [47]: 2.9 µM·h; blood plasma ratio at 24 h [48]: 1.4; clearance [49]: 39.5 mL/min/kg; Vd [50]: 8.6 L/kg; dose excreted at 24 h [51]: 0.02%; CL renal at 24 h [52]: 14.4 mL/day/kg; Drug metabolism [53]: Metabolite_Notdetected; efflux ratio at 2 h, 20 µM (in vitro [36]): 40
